Source: PubChem BioAssay AID248 (DTP/NCI, 2004)
Several values for one entry are separate records, joined by “and”; a condition that tells them apart may be missing. Equal entries are not always repeated. Toxic doses and inconclusive results are not listed.

Tested on: L1210 leukemia ip in BDF1 mice, survival T/C
Assay: NCI In Vivo Anticancer Drug Screen. Data for tumor model L1210 Leukemia (intraperitoneal) in B6D2F1 (BDF1) mice
Settings: endpoint: mean survival time, higher = longer survival
In short: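 Mice bearing the transplanted tumor received compound or vehicle. Survival of the treated group was divided by that of the vehicle-treated control group to give the ratio.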

[1] = dose: 50.0 mg/kg/injection, schedule: Q01DX009 (ip), vehicle: saline with Tween-80
[2] = dose: 100.0 mg/kg/injection, schedule: Q04DX003 (ip), vehicle: saline with Tween-80
[3] = dose: 200.0 mg/kg/injection, schedule: Q04DX002 (ip), vehicle: saline with Tween-80
[4] = dose: 200.0 mg/kg/injection, schedule: Q04DX003 (ip), vehicle: saline with Tween-80
[5] = dose: 400.0 mg/kg/injection, schedule: Q04DX003 (ip), vehicle: saline with Tween-80
[6] = dose: 50.0 mg/kg/injection, schedule: Q01DX001 (ip), vehicle: saline
[7] = dose: 100.0 mg/kg/injection, schedule: Q01DX001 (ip), vehicle: saline
[8] = dose: 200.0 mg/kg/injection, schedule: Q01DX001 (ip), vehicle: saline
[9] = dose: 400.0 mg/kg/injection, schedule: Q01DX001 (ip), vehicle: saline
[10] = dose: 2.5 mg/kg/injection, schedule: Q04DX003 (ip), vehicle: Klucel (hydroxypropylcellulose) (HPC)
[11] = dose: 5.0 mg/kg/injection, schedule: Q04DX003 (ip), vehicle: Klucel (hydroxypropylcellulose) (HPC)
[12] = dose: 10.0 mg/kg/injection, schedule: Q04DX003 (ip), vehicle: Klucel (hydroxypropylcellulose) (HPC)
[13] = dose: 100.0 mg/kg/injection, schedule: Q04DX003 (ip), vehicle: Klucel (hydroxypropylcellulose) (HPC)
[14] = dose: 100.0 mg/kg/injection, schedule: Q04DX003 (ip), vehicle: saline
[15] = dose: 200.0 mg/kg/injection, schedule: Q04DX003 (ip), vehicle: saline
[16] = dose: 400.0 mg/kg/injection, schedule: Q04DX003 (ip), vehicle: saline
[17] = dose: 100.0 mg/kg/injection, schedule: Q01DX009 (ip), vehicle: Klucel (hydroxypropylcellulose) (HPC)
[18] = dose: 200.0 mg/kg/injection, schedule: Q01DX009 (ip), vehicle: Klucel (hydroxypropylcellulose) (HPC)
[19] = dose: 100.0 mg/kg/injection, schedule: Q01DX009 (ip), vehicle: saline with Tween-80
[20] = dose: 200.0 mg/kg/injection, schedule: Q04DX003 (ip), vehicle: Klucel (hydroxypropylcellulose) (HPC)

CCC(CC)(Cc1ccccc1)C(=O)NC(=O)NO
T/C (dose: 25.0 mg/kg/injection, schedule: Q01DX Z (ip), vehicle: methylcellulose (MC)): 98 % of control | T/C (dose: 50.0 mg/kg/injection, schedule: Q01DX Z (ip), vehicle: methylcellulose (MC)): 101 % of control | T/C (dose: 100.0 mg/kg/injection, schedule: Q01DX Z (ip), vehicle: methylcellulose (MC)): 98 % of control

Cc1ccc(NC(=O)Oc2ccc(Br)cc2Br)c(Cl)c1
T/C (dose: 25.0 mg/kg/injection, schedule: Q01DX009 (ip), vehicle: saline with Tween-80): 104 % of control and 106 % of control | T/C [1]: 101 % of control and 105 % of control | T/C (dose: 100.0 mg/kg/injection, schedule: Q04DX002 (ip), vehicle: saline with Tween-80): 101 % of control and 107 % of control | T/C [2]: 103 % of control | T/C [3]: 97 % of control and 101 % of control | T/C [4]: 113 % of control | T/C (dose: 400.0 mg/kg/injection, schedule: Q04DX002 (ip), vehicle: saline with Tween-80): 103 % of control and 111 % of control | T/C [5]: 103 % of control

O=C1NC(=S)N/C1=C\c1ccco1
T/C (dose: 25.0 mg/kg/injection, schedule: Q01DX001 (ip), vehicle: saline): 100 % of control | T/C [6]: 100 % of control | T/C [7]: 98 % of control and 100 % of control

CCC(C)C(CN)(CCCCN1CCCC1)c1cccc2ccccc12 (centres undefined)
T/C [2]: 102 % of control

O=C(O)C1(C(=O)O)CCC1c1ccccc1 (centres undefined)
T/C [7]: 94 % of control | T/C [8]: 113 % of control | T/C [9]: 102 % of control

CN(C)/N=C/c1ccccc1C(=O)O
T/C (dose: 50.0 mg/kg/injection, schedule: Q04DX003 (ip), vehicle: saline with Tween-80): 101 % of control | T/C [2]: 97 % of control | T/C [4]: 96 % of control | T/C [5]: 106 % of control

CCCCCCCCCCc1ccccc1
T/C (dose: 12.5 mg/kg/injection, schedule: Q04DX002 (ip), vehicle: saline with Tween-80): 100 % of control | T/C (dose: 25.0 mg/kg/injection, schedule: Q04DX002 (ip), vehicle: saline with Tween-80): 97 % of control | T/C (dose: 50.0 mg/kg/injection, schedule: Q04DX002 (ip), vehicle: saline with Tween-80): 93 % of control | T/C [3]: 112 % of control

Cc1nc(-c2ccc(N=Cc3ccc(N(CCOS(C)(=O)=O)CCOS(C)(=O)=O)cc3)cc2)c(C)s1
T/C [10]: 109 % of control | T/C [11]: 111 % of control | T/C [12]: 122 % of control | T/C (dose: 40.0 mg/kg/injection, schedule: Q04DX003 (ip), vehicle: Klucel (hydroxypropylcellulose) (HPC)): 171 % of control | T/C (dose: 80.0 mg/kg/injection, schedule: Q04DX003 (ip), vehicle: Klucel (hydroxypropylcellulose) (HPC)): 117 % of control | T/C [13]: 100 % of control

C=CCn1c(-c2ccc(N(C)C)cc2)nc2c(Cl)ncnc21
T/C (dose: 5.0 mg/kg/injection, schedule: Q01DX009 (ip), vehicle: steriod suspending solution): 97 % of control | T/C (dose: 9.0 mg/kg/injection, schedule: Q01DX009 (ip), vehicle: steriod suspending solution): 98 % of control | T/C (dose: 14.0 mg/kg/injection, schedule: Q01DX009 (ip), vehicle: steriod suspending solution): 102 % of control | T/C (dose: 24.0 mg/kg/injection, schedule: Q01DX009 (ip), vehicle: steriod suspending solution): 95 % of control

Nc1ccc2c(c1)-c1ccccc1C1=NCCN12
T/C [10]: 102 % of control | T/C (dose: 5.0 mg/kg/injection, schedule: Q01DX009 (ip), vehicle: Klucel (hydroxypropylcellulose) (HPC)): 98 % of control | T/C [11]: 102 % of control | T/C (dose: 10.0 mg/kg/injection, schedule: Q01DX009 (ip), vehicle: Klucel (hydroxypropylcellulose) (HPC)): 98 % of control | T/C [12]: 93 % of control | T/C (dose: 20.0 mg/kg/injection, schedule: Q01DX009 (ip), vehicle: Klucel (hydroxypropylcellulose) (HPC)): 96 % of control | T/C (dose: 20.0 mg/kg/injection, schedule: Q04DX003 (ip), vehicle: Klucel (hydroxypropylcellulose) (HPC)): 90 % of control

CC1(C)CC1(Br)c1ccccc1 (centres undefined)
T/C [7]: 96 % of control | T/C [8]: 96 % of control | T/C [9]: 101 % of control

NCc1ccccc1[N+](=O)[O-]
T/C [14]: 104 % of control | T/C [15]: 104 % of control | T/C [16]: 102 % of control

CC(=O)c1cccc(NC(=O)Oc2ccc(Cl)cc2Cl)c1
T/C [17]: 101 % of control | T/C [18]: 110 % of control

O=NNc1ccccn1
T/C (dose: 6.25 mg/kg/injection, schedule: Q04DX003 (ip), vehicle: saline): 111 % of control | T/C (dose: 8.0 mg/kg/injection, schedule: Q01DX009 (ip), vehicle: saline): 116 % of control | T/C (dose: 8.0 mg/kg/injection, schedule: Q04DX003 (ip), vehicle: saline): 121 % of control and 123 % of control | T/C (dose: 12.0 mg/kg/injection, schedule: Q01DX009 (ip), vehicle: saline): 106 % of control | T/C (dose: 12.0 mg/kg/injection, schedule: Q04DX003 (ip), vehicle: saline): 156 % of control | T/C (dose: 18.0 mg/kg/injection, schedule: Q01DX009 (ip), vehicle: saline): 119 % of control | T/C (dose: 50.0 mg/kg/injection, schedule: Q04DX003 (ip), vehicle: saline): 114 % of control

COc1ccc2c(c1)CCC2=O
T/C [1]: 112 % of control | T/C [19]: 112 % of control | T/C [13]: 91 % of control | T/C [20]: 96 % of control

CC(=O)C1=CCC2C3CC(C)=C4CC(O)CCC4(C)C3CCC12C (centres undefined)
T/C [2]: 94 % of control | T/C [4]: 92 % of control | T/C [5]: 90 % of control

Cc1ccc(NS(=O)(=O)c2ccccc2)cc1
T/C [19]: 106 % of control | T/C [2]: 104 % of control | T/C [14]: 93 % of control | T/C (dose: 200.0 mg/kg/injection, schedule: Q01DX009 (ip), vehicle: saline with Tween-80): 101 % of control | T/C [4]: 100 % of control | T/C [15]: 101 % of control | T/C (dose: 400.0 mg/kg/injection, schedule: Q01DX009 (ip), vehicle: saline with Tween-80): 103 % of control | T/C [5]: 104 % of control | T/C [16]: 106 % of control

CC1(C)[C@@H]2CC[C@]1(C)[C@@H](O)C2
T/C (dose: 100.0 mg/kg/injection, schedule: Q01DX001 (ip), vehicle: Klucel (hydroxypropylcellulose) (HPC)): 104 % of control | T/C [13]: 102 % of control | T/C (dose: 200.0 mg/kg/injection, schedule: Q01DX001 (ip), vehicle: Klucel (hydroxypropylcellulose) (HPC)): 96 % of control | T/C [20]: 102 % of control | T/C (dose: 400.0 mg/kg/injection, schedule: Q01DX001 (ip), vehicle: Klucel (hydroxypropylcellulose) (HPC)): 93 % of control | T/C (dose: 400.0 mg/kg/injection, schedule: Q04DX003 (ip), vehicle: Klucel (hydroxypropylcellulose) (HPC)): 97 % of control

O=C(O)c1ccccc1-c1c2ccc(=O)c(Br)c-2oc2c(Br)c(O)ccc12
T/C [6]: 104 % of control | T/C [7]: 96 % of control | T/C [8]: 98 % of control | T/C [9]: 102 % of control

CCCCCCCCCCCCCCCCCOC(=O)CCCCCCCCCCCCC
T/C [17]: 91 % of control | T/C [2]: 90 % of control | T/C [18]: 96 % of control | T/C [4]: 88 % of control | T/C (dose: 400.0 mg/kg/injection, schedule: Q01DX009 (ip), vehicle: Klucel (hydroxypropylcellulose) (HPC)): 98 % of control | T/C [5]: 92 % of control

C[C@]12CC[C@H]3[C@@H](CCC4=CC(=O)CC[C@@]43CO)[C@@H]1CC[C@@H]2O
T/C (dose: 50.0 mg/kg/injection, schedule: Q01DX001 (sc), vehicle: steriod suspending solution): 102 % of control | T/C (dose: 100.0 mg/kg/injection, schedule: Q01DX001 (sc), vehicle: steriod suspending solution): 98 % of control | T/C (dose: 200.0 mg/kg/injection, schedule: Q01DX001 (sc), vehicle: steriod suspending solution): 98 % of control | T/C (dose: 400.0 mg/kg/injection, schedule: Q01DX001 (sc), vehicle: steriod suspending solution): 102 % of control
